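All cell lines were grown in 96-well plates and treated with compound for 48 hours. At the GI50, growth is halved. The concentration for full growth arrest is given as TGI.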
Key:
Assay in all cases: NCI tumour cell line growth inhibition, 48 h
HCT-116 colon = system: HCT-116 colon
ACHN renal = system: ACHN renal
SW-620 colon = system: SW-620 colon
UACC-257 melanoma = system: UACC-257 melanoma
RPMI-8226 leukemia = system: RPMI-8226 leukemia
SN12C renal = system: SN12C renal
SF-539 CNS = system: SF-539 CNS
SF-268 CNS = system: SF-268 CNS
CAKI-1 renal = system: CAKI-1 renal
K-562 leukemia = system: K-562 leukemia

| SMILES | GI50 (HCT-116 colon) | TGI (HCT-116 colon) | GI50 (ACHN renal) | TGI (ACHN renal) | GI50 (SW-620 colon) | TGI (SW-620 colon) | GI50 (UACC-257 melanoma) | TGI (UACC-257 melanoma) | GI50 (RPMI-8226 leukemia) | TGI (RPMI-8226 leukemia) | GI50 (SN12C renal) | TGI (SN12C renal) | GI50 (SF-539 CNS) | TGI (SF-539 CNS) | GI50 (SF-268 CNS) | TGI (SF-268 CNS) | GI50 (CAKI-1 renal) | TGI (CAKI-1 renal) | GI50 (K-562 leukemia) | TGI (K-562 leukemia) |
| --- | --- | --- | --- | --- | --- | --- | --- | --- | --- | --- | --- | --- | --- | --- | --- | --- | --- | --- | --- | --- |
| O=c1oc2ccc(Br)cc2c(=O)n1-c1ccc(F)cc1F | 2.48 µM | 8.37 µM | 2.44 µM | 7.99 µM | 2.96 µM | 16.7 µM | 1.78 µM | 6.67 µM | 1.66 µM | 7.07 µM | 2 µM | 8.61 µM | 2.17 µM | 9.21 µM | 2.62 µM | 21.8 µM | 1.72 µM | 6.1 µM | 2.4 µM | > 100 µM |
| O=[N+]([O-])c1ccc(CSCc2ccc(Cl)cc2)cc1 | – | > 100 µM | – | > 100 µM | – | > 100 µM | – | > 100 µM | – | > 100 µM | – | > 100 µM | – | > 100 µM | – | > 100 µM | – | > 100 µM | – | > 100 µM |
| O=C(CSC(c1ccccc1)c1ccccc1)N/N=C/c1ccco1 | 1.46 µM | 2.98 µM | 1.82 µM | 3.62 µM | 2.9 µM | > 11.6 µM | – | 0.935 µM | 1.94 µM | 4.45 µM | 17.2 µM | 35.7 µM | 2.07 µM | 7.55 µM | 2.25 µM | > 12.5 µM | 4.7 µM | 23.2 µM | 2.16 µM | 8.74 µM |
| COC(=O)c1cc(/C=C/c2ccc(S(N)(=O)=O)cc2)ccc1O | 20 µM | > 100 µM | 29.6 µM | > 100 µM | 25.7 µM | > 100 µM | 59.6 µM | > 100 µM | 27.4 µM | > 100 µM | 29.3 µM | 89.9 µM | 18.4 µM | 47.4 µM | 37.3 µM | > 100 µM | 28.6 µM | > 100 µM | > 100 µM | > 100 µM |
| O=C(N/N=C/c1c(Cl)cccc1Cl)c1ccc(C(F)(F)F)nc1Nc1cccc(C(F)(F)F)c1 | 0.461 µM | 38.8 µM | 1.26 µM | 11.3 µM | 0.458 µM | > 51.1 µM | 1.02 µM | > 100 µM | 0.375 µM | 10.5 µM | 0.912 µM | 20.8 µM | 2.11 µM | 8.09 µM | 1.22 µM | > 29.3 µM | 1.03 µM | 13.8 µM | 0.491 µM | – |
| COCOc1ccc(C2(O)Oc3cc(OCOC)ccc3C2C)c(O)c1 (stereo not drawn) | – | 27.6 µM | – | 26.7 µM | – | 32.4 µM | – | 24.5 µM | – | > 100 µM | – | 30 µM | – | 29.1 µM | – | 30 µM | – | 30.4 µM | – | 44.7 µM |
| COC1=C(Br)C(=O)c2nc(C)ccc2C1=O | – | 21.1 µM | – | 24 µM | – | 21.7 µM | – | 26.6 µM | – | > 22.6 µM | – | 29.1 µM | – | 36.1 µM | – | 33.1 µM | – | 29.3 µM | – | > 27.8 µM |
| Cn1c(=O)c2c(ncn2CC(=O)Nc2ccc(-c3ccccc3)nn2)n(C)c1=O | > 100 µM | > 100 µM | > 100 µM | > 100 µM | > 100 µM | > 100 µM | > 100 µM | > 100 µM | > 100 µM | > 100 µM | > 100 µM | > 100 µM | > 100 µM | > 100 µM | > 100 µM | > 100 µM | > 100 µM | > 100 µM | > 100 µM | > 100 µM |
| Cc1cc(C)n(-c2nnc3n2N=C(c2ccc(-c4ccccc4)cc2)CS3)n1 | 3.39 µM | > 100 µM | 3.98 µM | > 100 µM | 3.41 µM | > 100 µM | 4.99 µM | > 100 µM | 3.18 µM | > 100 µM | 3.92 µM | > 100 µM | 2.15 µM | 5.2 µM | 3.96 µM | > 100 µM | 3.05 µM | > 100 µM | 3.58 µM | > 100 µM |
| N.N.NCCCCCCCCCN.O=C([O-])CC(=O)[O-].O=C([O-])CC(=O)[O-].[Pt+4].[Pt+4] | > 100 µM | > 100 µM | 90.3 µM | > 100 µM | 66.4 µM | > 100 µM | > 100 µM | > 100 µM | > 100 µM | > 100 µM | 67.5 µM | > 100 µM | > 100 µM | > 100 µM | > 100 µM | > 100 µM | 22.3 µM | 91.1 µM | > 100 µM | > 100 µM |

— PubChem BioAssay (NCI)
